The values that follow come from paper PMC12176620, “Structure of the ATP-driven methyl-coenzyme M reductase activation complex” (Nature, 2025).

Assay [1] concerns the target T1, A2 component (Methanococcus maripaludis, UniProt A0A2L1C9A1).
T1 construct: gene opuCA; with Methyl-coenzyme M reductase subunit alpha; Methyl-coenzyme M reductase subunit beta; Methyl-coenzyme M reductase subunit gamma; Methyl-coenzyme M reductase operon protein C; Methanogenesis marker protein 7; Methanogenesis marker protein 17; Methanogenesis marker protein 3; DUF2098 domain-containing protein
The assay can be described thus: mass photometry (stabilisation of the complex). Conditions: 5 mM AMP-PNP, 20 mM Ti(III) citrate; indirect, through assembly of A2 with MCR. It is filed as binding.

Assay [2] concerns the target T1, A2 component. The assay can be described thus: cryo-EM structure. It is filed as binding. To be noted: two ATP with Mg ions, pre-hydrolytic state; sample incubated with 5 mM ATP.
Assay [3] has as its target T2, MCR (McrABG core) in the MCR activation complex (Methanococcus maripaludis, UniProt A0A2L1CBB0+A0A2L1CBB3+A0A2L1CBG2).
T2 construct: gene mcrA; native complex pulled down from M. maripaludis by genomic N-terminal Twin-Strep-tag on McrC; McrA with native post-translational modifications; with Methyl-coenzyme M reductase operon protein C; Methanogenesis marker protein 7; Methanogenesis marker protein 17; Methanogenesis marker protein 3; Methyl-coenzyme M reductase system component A2; DUF2098 domain-containing protein
The assay is described as follows: cryo-EM structure. It is filed as binding.

Assay [4] concerns the target methyl-coenzyme M reductase (MCR) core (Methanococcus maripaludis (endogenous in M. maripaludis JJ Δupt)) (UniProt Q6LWZ9). The assay is described as follows: cryo-EM structure; single-particle analysis of the Strep-Tactin-purified MCR activation complex (1.2 mg/ml), vitrified anaerobically 'as isolated' (maps with A2 at 2.5 Å and without A2 at 2.7 Å) and after 30 min with 5 mM ATP and the CH4 reaction components except Ti(III) citrate (2.1 Å, locally 1.8 Å).

T2 sequence (A0A2L1CBB3 entry or part of it): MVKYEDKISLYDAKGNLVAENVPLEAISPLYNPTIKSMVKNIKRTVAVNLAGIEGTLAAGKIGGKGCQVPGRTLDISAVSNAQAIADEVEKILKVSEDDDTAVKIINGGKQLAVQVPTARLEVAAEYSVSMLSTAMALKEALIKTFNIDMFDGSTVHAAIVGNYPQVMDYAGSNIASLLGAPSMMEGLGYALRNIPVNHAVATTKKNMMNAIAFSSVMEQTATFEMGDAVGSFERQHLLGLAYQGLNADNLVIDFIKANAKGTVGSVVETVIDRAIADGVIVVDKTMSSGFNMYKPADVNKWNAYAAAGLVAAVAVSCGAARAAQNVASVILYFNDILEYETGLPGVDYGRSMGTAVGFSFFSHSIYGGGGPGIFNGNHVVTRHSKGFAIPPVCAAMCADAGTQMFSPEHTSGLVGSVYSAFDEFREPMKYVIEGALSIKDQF
T2 sequence (A0A2L1CBB0 entry or part of it): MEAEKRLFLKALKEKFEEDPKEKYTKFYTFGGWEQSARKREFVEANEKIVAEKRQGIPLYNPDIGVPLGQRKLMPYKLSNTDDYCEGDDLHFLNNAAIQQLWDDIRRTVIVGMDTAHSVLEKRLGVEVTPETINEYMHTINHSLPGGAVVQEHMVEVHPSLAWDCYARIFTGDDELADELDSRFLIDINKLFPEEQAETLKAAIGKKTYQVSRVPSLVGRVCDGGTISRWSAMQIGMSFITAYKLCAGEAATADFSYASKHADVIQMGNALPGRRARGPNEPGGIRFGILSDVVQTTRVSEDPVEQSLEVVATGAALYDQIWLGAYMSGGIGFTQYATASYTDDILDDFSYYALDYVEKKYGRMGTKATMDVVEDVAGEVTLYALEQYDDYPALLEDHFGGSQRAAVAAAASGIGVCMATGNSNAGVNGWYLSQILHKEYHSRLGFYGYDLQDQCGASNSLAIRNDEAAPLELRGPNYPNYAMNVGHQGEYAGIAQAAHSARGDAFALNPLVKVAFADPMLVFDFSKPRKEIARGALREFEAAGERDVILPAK
T2 sequence (A0A2L1CBG2 entry or part of it): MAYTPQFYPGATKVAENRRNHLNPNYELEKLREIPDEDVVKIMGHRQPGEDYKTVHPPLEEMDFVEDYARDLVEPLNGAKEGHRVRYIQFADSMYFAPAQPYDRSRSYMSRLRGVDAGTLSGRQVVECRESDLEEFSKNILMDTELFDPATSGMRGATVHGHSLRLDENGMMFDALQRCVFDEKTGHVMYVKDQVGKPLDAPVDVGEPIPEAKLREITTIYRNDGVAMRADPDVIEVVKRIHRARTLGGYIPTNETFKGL
T2 sequence (G0H3B1 entry or part of it, further chain): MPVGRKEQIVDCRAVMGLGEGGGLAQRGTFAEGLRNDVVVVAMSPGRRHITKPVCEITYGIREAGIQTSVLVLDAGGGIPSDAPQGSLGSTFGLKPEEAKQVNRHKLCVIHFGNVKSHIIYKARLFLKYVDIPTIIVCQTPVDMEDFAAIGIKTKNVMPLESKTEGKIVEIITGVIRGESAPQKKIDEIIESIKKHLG

For the molecule `Nc1ncnc2c1ncn2[C@@H]1O[C@H](COP(=O)(O)OP(=O)(O)NP(=O)(O)O)[C@@H](O)[C@H]1O` [AMP-PNP], the “mass photometry (stabilisation of the complex)” value in assay [1] is “A similar effect was observed when AMP-PNP, a non-hydrolysable ATP analogue, was used”.
As to `Nc1ncnc2c1ncn2[C@@H]1O[C@H](COP(=O)(O)OP(=O)(O)OP(=O)(O)O)[C@@H](O)[C@H]1O` [ATP], in assay [2], the cryo-EM structure result was “Our structure revealed two ATP molecules and their coordinating Mg ions”.
In the case of `C[C@@H](OP(=O)(O)O)[C@H](NC(=O)CCCCCCS)C(=O)O` [CoB–SH], in assay [3] (distal active site), the cryo-EM structure entry is reported as “the phosphate moiety of CoB–SH was kept in place by the positively charged McrA residues”.
As for `C[C@@H](OP(=O)(O)O)[C@H](NC(=O)CCCCCCSSCCS(=O)(=O)O)C(=O)O` [CoMS–SCoB], the cryo-EM structure entry in assay [3] (proximal active site, next to F430, sample incubated with ATP) is “In the proximal active site, we found the CoMS–SCoB heterodisulfide next to F430”.

B1: A2 component (natural protein)
chain: MLLLEVKNVSKSYGDTEVLKNVSFELNEGDVMGVLGRSGAGKSVLLHMLRGMEGYEPTSGQIIYHVAYCPHCENVEAPSQVGKKCECETEYVAKSVDFWNNNEITYALKKKIAIMLQRTFALYGEKTVAENIMEALTAAGYEGKDATEWALNLIKMVKLEHRVAHISRDLSGGEKQRVVLARQIAKNPVIFLADEPTGTLDPKTAKFVHNALTEAVIKHNIAMVITSHWPEVIEELCQKAIWLDKGEMRLVGESKHVVEEFMKTVTSMKEFEKVEVKDELLKLENVEKRYVSVDRGIVKAVDGIDVSINEKEIFGLVGVSGAGKTTLSKIIAAVIPPSKGNYEFRLADEWVDMTKVGPLYRGRAKRYIGMLFQEYSLYPHRTILYNLTESIGLEMPGEFAKMKAEHTLVSVGFTEEEAENMLEKHPSELSVGEKHRVALAQVLIREPHLILLDEPTGTMDPITRNQVAESIQKSRSELDQTYVIVSHDMDFVLNVCDRAALVRGGKIIKTGKPDEIVKILSEEEKDEMIGH
Regarding B1, in assay [4], the occupancy of the A2 component, sample preincubated with 5 mM ATP (% of the particles) is 92 and the percent of particles with the A2 component, sample 'as isolated' (% of particles) came out at 58.
